Results as given in US20250059188A1, “ARYLSULPHONAMIDE COMPOUNDS” (Anaxis Pharma Pty Ltd, priority 2021, published 2025).

Tests used:
[1] = target: human MLKL (full length) (Homo sapiens (Human), UniProt Q8NB16); test: KINOMEscan binding assay, human MLKL (full length); settings: equilibrium dissociation constant
Method: (§1) Binding affinity of the test compounds for human MLKL (full length), mouse MLKL (full length), human RIPK1 and human RIPK3 was determined using the KINOMEscan™ technology developed by DiscoverX (USA; http://www.discoverx.com). The assay was conducted according to manufacturer instructions.
(§2) Kinase assays. For most assays, kinase-tagged T7 phage strains were grown in parallel in 24-well blocks in an E. coli host derived from the BL21 strain. E. coli were grown to log-phase and infected with T7 phage from a frozen stock (multiplicity of infection=0.4) and incubated with shaking at 32° C. until lysis (90-150 minutes). The lysates were centrifuged (6,000×g) and filtered (0.2 μm) to remove cell debris. The remaining kinases were produced in HEK-293 cells and subsequently tagged with DNA for qPCR detection. […] The liganded beads were blocked with excess biotin and washed with blocking buffer (SeaBlock (Pierce), 1% BSA, 0.05% Tween 20, 1 mM DTT) to remove unbound ligand and to reduce non-specific phage binding. […] All reactions were performed in polypropylene 384-well plates in a final volume of 20 μL. […] The kinase concentration in the eluates was measured by qPCR.
(§3) An 11-point 3-fold serial dilution of each test compound was prepared in 100% DMSO at 100× final test concentration and subsequently diluted to 1× in the assay (final DMSO concentration=1%). Most Kos were determined using a compound top concentration=30,000 nM.
(§4) KD for each test compound was calculated with a standard dose-response curve using the Hill equation (equation (1)): […]
(§5) The Hill Slope was set to −1.
(§6) Curves were fitted using a non-linear least square fit with the Levenberg-Marquardt algorithm.

[2] = target: human RIPK3 (Homo sapiens (Human), UniProt Q9Y572); test: KINOMEscan binding assay, human RIPK3; settings: equilibrium dissociation constant
human RIPK3, sequence (Q9Y572 whole entry): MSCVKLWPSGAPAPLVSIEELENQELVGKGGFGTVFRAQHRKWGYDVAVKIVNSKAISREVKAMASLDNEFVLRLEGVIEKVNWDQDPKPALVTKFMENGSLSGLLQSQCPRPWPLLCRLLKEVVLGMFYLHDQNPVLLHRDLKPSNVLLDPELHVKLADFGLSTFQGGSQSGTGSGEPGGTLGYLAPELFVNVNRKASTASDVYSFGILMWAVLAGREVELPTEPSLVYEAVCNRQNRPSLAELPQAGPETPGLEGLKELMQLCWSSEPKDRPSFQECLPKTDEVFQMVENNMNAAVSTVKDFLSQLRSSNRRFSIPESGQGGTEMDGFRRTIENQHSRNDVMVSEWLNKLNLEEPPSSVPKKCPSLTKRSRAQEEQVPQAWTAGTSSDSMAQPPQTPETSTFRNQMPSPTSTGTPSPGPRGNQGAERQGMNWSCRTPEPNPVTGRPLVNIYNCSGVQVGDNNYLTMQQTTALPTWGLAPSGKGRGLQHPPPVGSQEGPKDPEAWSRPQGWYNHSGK
Method: as §1, §2, §3, §4, §5, §6

[3] = tested on: U937 cells; test: Counter screen: U937 cell viability without TSQ cocktail (off-target effect); set-up: species or system human; settings: Homo sapiens, U-937, compound without TSQ cocktail, read-out: Off-target effect (IC50 cell-based assay)
Method: (§7) • Cell Line ID: U937 human histiocytic leukemia cell line. • Cell Concentration (cells/well): Final cell density is 20000 cells per well. • Cell growth medium: HT-RPMI medium+7.4% Fetal Bovine Serum (FBS). Cells are cultured in Corning 150 cm^2 tissue culture flasks with vented caps at 37° C./5% CO2. • Incubation: Plates were incubated at 37° C./5% CO2 in a humidified incubator for 48 hours following addition of compounds and death stimuli (TSQ cocktail). • Compound concentration: 36 μM starting concentration, 1:3 dilution, 10 point • DMSO final concentration (% v/v): 0.3%. Compounds in TSQ Cocktail (T: TNF; S: Smac Mimetic; Q: Q-VD-OPh) and their Final Concentrations: • hTNF-Fc (100 ng/ml)—produced by standard procedures as shown in Bossen et al., J. Biol. Chem., 2006, 281(20), 13964-13971. • Compound A (500 nM) —Smac mimetic, Tetralogic and SYNthesis med chem • Q-VD-OPh (10 μM) —MP Biomedicals
(§8) The cellular assay was carried out according to the following steps: • 1. Each well was prepared by sequential addition of: • a. DMSO (control; columns 1-2 and 23-24) or compound in DMSO—addition was performed using acoustic transfer of nL volumes of stock compound to give final test concentrations of 36, 12, 4, 1.3, 0.44, 0.148, 0.049, 0.016, 0.005 and 0.002 μM. All wells were backfilled with DMSO to a final total volume in the well of 100 nL. • b. Following compound/DMSO addition in step (a), 40 μL of cell suspension (5×10^5 cells/mL) was added to provide a final cell concentration of 20,000 cells per well, and • c. Following cell addition in step (b), 10 μL of 5×TSQ cocktail (except to positive controls; columns 1 and 23) was added to each well. • 2. After 48 hours, plate was removed from the 37° C. incubator and equilibrated to room temperature for 45 minutes. • 3. 15 μL of room temperature CellTitre-Glo2™ (Promega™) was added to each well. • 4. Shook plates for 2 minutes (˜600 rpm) and incubated at room temperature for 15 minutes to allow signal to stabilise. • 5. Read luminescence readout on a plate reader.
(§9) 10 point titration curves were fitted with the 4 parameter logistic nonlinear regression model and the IC50 reported reflect the inflection point of the curve for curve fitting.
(§10) • Assay involving the TSQ cocktail (T: TNF; S: Smac mimetic; Q: Q-VD-OPh): TSQ treatment ensures that cells specifically undergo necroptotic cell death. TNF activates the TNF receptor, Smac mimetic directs the signal away from proinflammatory signaling and toward the RIPK1/RIPK3-mediated cell death pathways, and Q-VD-OPh ensures that the apoptotic response is blocked leaving only the programmed necrosis response. The compounds' activity (solution in DMSO) tested in this TSQ-induced assay was evaluated by determining the number of viable cells in culture by measuring the amount of ATP present as measured by CelltiterGlo. • Counter screen: In parallel, all compounds were tested for their ability to affect cell viability. The same U937 cells were treated with compound in DMSO without the TSQ cocktail. This counter screen enabled evaluation of off-target effects. In this case, cell viability was measured by CelltiterGlo.

[4] = tested on: U937 human histiocytic leukemia cell line; test: Inhibition of TSQ induced necroptosis in U937 cells (CellTitre-Glo); settings: Homo sapiens, U-937, TSQ cocktail (TNF, Smac mimetic, Q-VD-OPh), 48 hours, read-out: Inhibition of TSQ-induced necroptosis (IC50 cell-based assay)
Method: Cellular Assay: Screening Compounds for Inhibition of TSQ Induced Necroptosis, 384 Well Plate Format.
as §7, §8
Percent viability was calculated for each compound according to equation (2): […]
as §9, §10

[5] = target: human RIPK1 (Homo sapiens (Human), UniProt Q13546); test: KINOMEscan binding assay, human RIPK1; settings: equilibrium dissociation constant
human RIPK1, sequence (Q13546 whole entry): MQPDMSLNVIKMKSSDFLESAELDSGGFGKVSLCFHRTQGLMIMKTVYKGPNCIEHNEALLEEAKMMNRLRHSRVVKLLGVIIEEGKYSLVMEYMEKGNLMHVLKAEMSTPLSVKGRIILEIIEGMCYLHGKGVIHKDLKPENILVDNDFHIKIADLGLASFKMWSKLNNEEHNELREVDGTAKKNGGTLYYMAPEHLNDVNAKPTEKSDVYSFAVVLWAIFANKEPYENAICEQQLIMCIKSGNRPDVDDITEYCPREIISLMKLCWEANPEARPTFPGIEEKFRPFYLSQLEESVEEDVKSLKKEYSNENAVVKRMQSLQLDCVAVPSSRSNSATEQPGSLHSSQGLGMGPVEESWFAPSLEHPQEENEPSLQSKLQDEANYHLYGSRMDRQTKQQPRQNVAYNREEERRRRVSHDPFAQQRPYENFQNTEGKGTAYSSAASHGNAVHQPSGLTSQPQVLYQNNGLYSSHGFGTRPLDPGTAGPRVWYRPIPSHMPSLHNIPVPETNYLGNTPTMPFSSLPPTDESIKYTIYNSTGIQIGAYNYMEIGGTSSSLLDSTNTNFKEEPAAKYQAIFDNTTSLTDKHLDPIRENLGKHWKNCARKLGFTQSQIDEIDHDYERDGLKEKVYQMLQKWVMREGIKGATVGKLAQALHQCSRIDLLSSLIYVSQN
Method: as §1, §2, §3, §4, §5, §6

human MLKL (full length), sequence (Q8NB16 whole entry): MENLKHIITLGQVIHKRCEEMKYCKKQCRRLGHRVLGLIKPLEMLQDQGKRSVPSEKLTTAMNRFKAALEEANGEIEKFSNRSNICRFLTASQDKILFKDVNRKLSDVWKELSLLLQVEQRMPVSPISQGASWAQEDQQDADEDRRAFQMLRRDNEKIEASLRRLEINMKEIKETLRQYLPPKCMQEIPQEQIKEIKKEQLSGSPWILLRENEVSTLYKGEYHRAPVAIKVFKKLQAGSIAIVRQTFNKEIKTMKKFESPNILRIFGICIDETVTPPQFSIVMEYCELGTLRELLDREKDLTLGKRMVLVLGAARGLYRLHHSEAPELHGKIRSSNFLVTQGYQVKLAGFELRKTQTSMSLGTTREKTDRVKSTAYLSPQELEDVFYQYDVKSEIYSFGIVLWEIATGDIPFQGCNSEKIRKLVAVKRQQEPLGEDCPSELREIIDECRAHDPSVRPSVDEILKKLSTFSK

| SMILES | Kd [1] [nM] | Kd [2] [µM] | IC50 [3] [µM] | IC50 [4] [nM] | Kd [5] [µM] |
| --- | --- | --- | --- | --- | --- |
| C[C@H](Oc1cc(-c2nn(C)c3c(C4=CCCN(C)C4)cnc(N)c23)ccc1NS(=O)(=O)C(F)F)c1ccc(F)cc1 [Compound 55, (S)—N-(4-(4-amino-1-methyl-7-(1-methyl-1,2,5,6-tetrahydropyridin-3-yl)-1H-pyrazolo[4,3-c]pyridin-3-yl)-2-(1-(4-fluorophenyl)ethoxy)phenyl)-1,1-difluoromethanesulfonamide] | < 1 | > 10 | > 10 | 1000 to 10000 | > 10 |
| C[C@H](Oc1cc(-c2nn(C)c3c(-c4cnc(N5CCN(C)CC5)nc4)cnc(N)c23)ccc1NS(=O)(=O)C(F)F)c1ccc(F)cc1 [Compound 105, (S)-N-(4-(4-amino-1-methyl-7-(2-(4-methylpiperazin-1-yl)pyrimidin-5-yl)-1H-pyrazolo[4,3-c]pyridin-3-yl)-2-(1-(4-fluorophenyl)ethoxy)phenyl)-1,1-difluoromethanesulfonamide] | < 1 | > 10 | > 10 | 10 to 1000 | > 10 |
| Cn1nc(-c2ccc(NS(=O)(=O)C(F)F)cc2OCc2cccc(F)c2)c2c(N)ncc(-c3cnn(C4CCOCC4)c3)c21 [Compound 135, N-(4-(4-amino-1-methyl-7-(1-(tetrahydro-2H-pyran-4-yl)-1H-pyrazol-4-yl)-1H-pyrazolo[4,3-c]pyridin-3-yl)-3-((3-fluorobenzyl)oxy)phenyl)-1,1-difluoromethanesulfonamide] | < 1 | > 10 | > 10 | 10 to 1000 | > 10 |
| Cc1cnccc1-c1cnc(N)c2c(-c3ccc(NS(=O)(=O)C(F)F)c(O[C@@H](C)c4ccc(F)cc4)c3)nn(C)c12 [Compound 32, (S)-N-(4-(4-amino-1-methyl-7-(3-methylpyridin-4-yl)-1H-pyrazolo[4,3-c]pyridin-3-yl)-2-(1-(4-fluorophenyl)ethoxy)phenyl)-1,1-difluoromethanesulfonamide] | – | – | > 10 | 1000 to 10000 | – |
| C[C@H](Oc1cc(-c2nn(C)c3c(-c4ccccc4Cl)cnc(N)c23)ccc1NS(=O)(=O)C(F)F)c1ccc(F)cc1 [Compound 85, (S)-N-(4-(4-amino-7-(2-chlorophenyl)-1-methyl-1H-pyrazolo[4,3-c]pyridin-3-yl)-2-(1-(4-fluorophenyl)ethoxy)phenyl)-1,1-difluoromethanesulfonamide] | 1 to 100 | > 10 | > 10 | 1000 to 10000 | > 10 |
| CC(C)N(C)CC(C)n1cc(-c2cnc(N)c3c(-c4ccc(NS(=O)(=O)C(F)F)c(O[C@@H](C)c5ccc(F)cc5)c4)nn(C)c23)cn1 (stereo partly drawn) [Compound 101, N-(4-(4-amino-7-(1-(1-(isopropyl(methyl)amino)propan-2-yl)-1H-pyrazol-4-yl)-1-methyl-1H-pyrazolo[4,3-c]pyridin-3-yl)-2-((S)-1-(4-fluorophenyl)ethoxy)phenyl)-1,1-difluoromethanesulfonamide] | < 1 | > 10 | > 10 | < 10 | > 10 |
| Cn1nc(-c2ccc(NS(=O)(=O)C(F)F)c(OCc3ccc(Cl)cn3)c2)c2c(N)ncc(-c3cnn(C4CCOCC4)c3)c21 [Compound 136, N-(4-(4-amino-1-methyl-7-(1-(tetrahydro-2H-pyran-4-yl)-1H-pyrazol-4-yl)-1H-pyrazolo[4,3-c]pyridin-3-yl)-2-((5-chloropyridin-2-yl)methoxy)phenyl)-1,1-difluoromethanesulfonamide] | – | – | > 10 | 10 to 1000 | – |
| Cn1nc(-c2ccc(NS(=O)(=O)C(F)F)c(OCc3ccc(F)cc3)c2)c2c(N)ncc(-c3cnn(CCO)c3)c21 [Compound 12, N-(4-(4-amino-7-(1-(2-hydroxyethyl)-1H-pyrazol-4-yl)-1-methyl-1H-pyrazolo[4,3-c]pyridin-3-yl)-2-((4-fluorobenzyl)oxy)phenyl)-1,1-difluoromethanesulfonamide] | – | – | > 10 | 1000 to 10000 | – |
| C[C@H](Oc1cc(-c2nn(C)c3c(-c4cnn(C5CCC(C(=O)O)CC5)c4)cnc(N)c23)ccc1NS(=O)(=O)C(F)F)c1ccc(F)cc1 (stereo partly drawn) [Compound 173, 4-(4-{4-amino-3-[4-(difluoromethanesulfonamido)-3-[(1S)-1-(4-fluorophenyl)ethoxy]phenyl]-1-methyl-1H-pyrazolo[4,3-c]pyridin-7-yl}-1H-pyrazol-1-yl)cyclohexane-1-carboxylic acid] | – | – | > 10 | 1000 to 10000 | – |
| Cn1nc(-c2ccc(NS(=O)(=O)C(F)F)c(OCc3ccc(F)cc3)c2)c2c(N)ncc(-c3ccncc3)c21 [Compound 14, N-(4-(4-amino-1-methyl-7-(pyridin-4-yl)-1H-pyrazolo[4,3-c]pyridin-3-yl)-2-((4-fluorobenzyl)oxy)phenyl)-1,1-difluoromethanesulfonamide] | – | – | > 10 | 1000 to 10000 | – |
| CCS(=O)(=O)Nc1ccc(-c2cccc3[nH]nc(N)c23)cc1OCc1ccc(F)cc1 [Compound 62, N-(4-(3-Amino-1H-indazol-4-yl)-2-((4-fluorophenyl)methoxy)phenyl)ethane-1-sulfonamide] | – | – | > 10 | 1000 to 10000 | – |
| COc1ccc([C@H](C)Oc2cc(-c3nn(C)c4c(-c5cnn(C6CCOCC6)c5)cnc(N)c34)ccc2NS(=O)(=O)C(F)F)cc1 [Compound 129, (S)-N-(4-(4-amino-1-methyl-7-(1-(tetrahydro-2H-pyran-4-yl)-1H-pyrazol-4-yl)-1H-pyrazolo[4,3-c]pyridin-3-yl)-2-(1-(4-methoxyphenyl)ethoxy)phenyl)-1,1-difluoromethanesulfonamide] | – | – | > 10 | 10 to 1000 | – |
| CCS(=O)(=O)Nc1ccc(-c2nn(C)c3c(-c4cccnc4)cnc(N)c23)cc1OCc1ccc(F)cc1 [Compound 1, N-(4-(4-amino-1-methyl-7-(pyridin-3-yl)-1H-pyrazolo[4,3-c]pyridin-3-yl)-2-((4-fluorobenzyl)oxy)phenyl)ethanesulfonamide] | – | > 10 | > 10 | 1000 to 10000 | > 10 |
| C[C@H](Oc1cc(-c2nn(C)c3c(-c4ccnc(N(C)C)c4)cnc(N)c23)ccc1NS(=O)(=O)C(F)F)c1ccc(F)cc1 [Compound 49, (S)-N-(4-(4-amino-7-(2-(dimethylamino)pyridin-4-yl)-1-methyl-1H-pyrazolo[4,3-c]pyridin-3-yl)-2-(1-(4-fluorophenyl)ethoxy)phenyl)-1,1-difluoromethanesulfonamide] | 1 to 100 | > 10 | – | – | > 10 |
